Results on six compounds are retold here after US20180111949A1, “NOVEL INDUSTRIAL CRYSTALLIZATION METHOD OF CEFUROXIME SODIUM AND PREPARATION THEREOF” (HAINAN LINGKANG PHARMACEUTICAL CO., LTD, priority 2016, published 2018).

Data set [1] can be described thus: Flowability test, angle of repose by funnel method. It is filed as physicochemical. The following applies: refined Cefuroxime Sodium prepared in Example 1. The procedure:
In order to examine the flowability of the refined Cefuroxime Sodium prepared in Example 1, the angle of repose was measured by a funnel method. Test method: The particles were placed in a fixed funnel, and were […] freely to a horizontal plane to form a disk-shaped stacked body with a bottom radius of r, and the height of the stacked body was measured as H. The results were calculated according to the equation of tan θ=H/r and were shown in the following table: […]

For data set [2] the following is noted: cited from earlier work.
Data set [3] is described as follows: pH, quality research per Chinese Pharmacopoeia 2010 Part 2. It is filed as physicochemical. The following applies: crystalline powder. The procedure: (§1) Referring to the quality standard of the raw material in “Part 2 of Chinese Pharmacopoeia 2010 Edition”, the quality research on crystalline powder of Cefuroxime Sodium was conducted in Example 1˜4 and Comparative Example 1, and the results were shown as follows: […]

The nature of data set [4]: Clarity of the solution, quality research per Chinese Pharmacopoeia 2010 Part 2. It is filed as physicochemical. As to conditions: compliance with pharmacopoeia standard. The procedure: as §1
Data set [5] is described as follows: Color of the solution, quality research per Chinese Pharmacopoeia 2010 Part 2. It is filed as physicochemical. The following applies: compliance with pharmacopoeia standard. The procedure: as §1
Data set [6] can be described thus: Abnormal toxicity, quality research per Chinese Pharmacopoeia 2010 Part 2. As to conditions: compliance with pharmacopoeia standard. Here is the method: as §1
A short description of data set [7]: Bacterial endotoxin, quality research per Chinese Pharmacopoeia 2010 Part 2. As to conditions: compliance with pharmacopoeia standard. The procedure:
as §1

Several values for one entry are separate records, joined by “and”; a condition that tells them apart may be missing. Equal values may be shown once.

For the compound `CO/N=C(\C(=O)N[C@@H]1C(=O)N2C(C(=O)[O-])=C(COC(N)=O)CS[C@H]12)c1ccco1.[Na+]` [Cefuroxime Sodium, Sodium (6R, 7R)-7-[2-furyl (methoxyimino)acetylamino]-3-carbamoyloxymethyl-8-oxo-5-thia-1-azabicyclo [4.2.0]oct-2-ene-2-carboxylate], the “Angle of repose θ, average value” in data set [1] (average of three measurements) is given as 26.1°. Also, in data set [1] (single measurements, funnel method), the “Angle of repose θ” value was 25.9° and 26.1° and 26.2°. Further, the Solubility in chloroform entry in data set [2] (chloroform) is reported as “insoluble”. Besides, the Solubility in ethanol result in data set [2] (ethanol) is recorded as “insoluble”. The Solubility in methanol result in data set [2] (methanol) is given as “slightly soluble”. For the same compound, the Solubility in water result in data set [2] (water) is given as “soluble”.
Turning to `CO/N=C(\C(=O)N[C@@H]1C(=O)N2C(C(=O)[O-])=C(COC(N)=O)CS[C@H]12)c1ccco1.[Na+]` [Example 2, Cefuroxime Sodium], in data set [3], the pH result is reported as “pH = 7.5”. Also, the “Clarity of the solution” value in data set [4] is recorded as “Compliance”. Also, in data set [5], the “Color of the solution” value is given as “Compliance”. Also, in data set [6], the Abnormal toxicity entry is recorded as “Compliance”. Further, the Bacterial endotoxin result in data set [7] was “Compliance”.
`CO/N=C(\C(=O)N[C@@H]1C(=O)N2C(C(=O)[O-])=C(COC(N)=O)CS[C@H]12)c1ccco1.[Na+]` [Example 4, Cefuroxime Sodium]: the pH result in data set [3] is reported as “pH = 7.0”. Also, the “Clarity of the solution” value in data set [4] is given as “Compliance”. In data set [5], the “Color of the solution” value is given as “Compliance”. Moreover, the Abnormal toxicity entry in data set [6] is given as “Compliance”. In addition, the Bacterial endotoxin entry in data set [7] is recorded as “Compliance”.
With `CO/N=C(\C(=O)N[C@@H]1C(=O)N2C(C(=O)[O-])=C(COC(N)=O)CS[C@H]12)c1ccco1.[Na+]` [Example 3, Cefuroxime Sodium], in data set [3], the pH result is on record as “pH = 7.4”. Further, in data set [4], the “Clarity of the solution” value is “Compliance”. For the same compound, the “Color of the solution” value in data set [5] was “Compliance”. In addition, in data set [6], the Abnormal toxicity result is reported as “Compliance”. For the same compound, the Bacterial endotoxin entry in data set [7] is “Compliance”.
Take `CO/N=C(\C(=O)N[C@@H]1C(=O)N2C(C(=O)[O-])=C(COC(N)=O)CS[C@H]12)c1ccco1.[Na+]` [Comparative Example 1, Cefuroxime Sodium]: the pH entry in data set [3] was “pH = 7.5”. Besides, in data set [4], the “Clarity of the solution” value is “Compliance”. The Abnormal toxicity entry in data set [6] was “Compliance”. The Bacterial endotoxin result in data set [7] was “Compliance”.
`CO/N=C(\C(=O)N[C@@H]1C(=O)N2C(C(=O)[O-])=C(COC(N)=O)CS[C@H]12)c1ccco1.[Na+]` [Example 1, Cefuroxime Sodium]: the pH result in data set [3] is reported as “pH = 7.3”. In addition, the “Clarity of the solution” value in data set [4] is listed as “Compliance”. In data set [5], the “Color of the solution” value is “Compliance”. In addition, the Abnormal toxicity result in data set [6] is listed as “Compliance”. In data set [7], the Bacterial endotoxin entry was “Compliance”.
